# Measurements published in patent US10131679B2, “Substituted dihydropyrrolopyrazole compound” (UBE INDUSTRIES, LTD., priority 2014, dated 2018).
# Experiments:
# [1] = system: IL-17 production in human PBMC-derived T cells; assay: Human PBMC various-stimulant cocktail-induced IL-17 production inhibition test; format: cell-based; conditions: 120 h; human T-cell suspension from PBMC, cocktail of various stimulants, incubation for 5 days, ELISA
# From the text: Human PBMC Various-Stimulant Cocktail-Induced IL-17 Production Inhibition Test
# PBMC was separated and collected by using Ficoll-Paque (17-1440-02 manufactured by GE Healthcare Japan Corp.) from blood collected from healthy human adult in the presence of heparin. The collected PBMC was further cultured in a flask for a certain time, and then, non-adherent cells in the supernatant were collected and used as a T-cell suspension. RPMI1640 medium (manufactured by GIBCO/Thermo Fisher Scientific, Inc., REF. 11875), which is containing 10% FBS (manufactured by GIBCO/Thermo Fisher Scientific, Inc., REF. 10082), 1% penicillin/streptomycin/amphotericin B (manufactured by GIBCO/Thermo Fisher Scientific, Inc., REF. 15240-096), 1% nonessential amino acids (manufactured by GIBCO/Thermo Fisher Scientific, Inc., REF. 11140-050), and 1% pyruvic acid (manufactured by GIBCO/Thermo Fisher Scientific, Inc., REF. 11140) and containing a test compound dissolved in DMSO, 2 μg/mL (final concentration) CD28 antibody (manufactured by BioLegend, Inc., Cat. No. 302914), 10 μg/mL (final concentration) human IFN-γ antibody (manufactured by BD Biosciences, Cat. No. 554698), 10 μg/mL (final concentration) human IL-4 antibody (manufactured by BD Biosciences, Cat. No. 554481), 20 ng/mL (final concentration) human IL-6 (manufactured by BioLegend, Inc., Cat. No. 570802), 10 ng/mL (final concentration) human IL-23 (manufactured by BioLegend, Inc., Cat. No. 574102), 10 ng/mL (final concentration) human IL-1(3 (manufactured by PeproTech Inc., Cat. No. 200-01B), and 10 ng/mL (final concentration) human TGF-13 (manufactured by BioLegend, Inc., Cat. No. 580702), was added at 100 μL/well to T cell Activation Plate Anti-Human CD3 96-well plate (manufactured by Corning Inc., REF. 354725). Subsequently, 100 μL of a T-cell suspension adjusted to 2×10^5 cells/mL was added to each well (final DMSO concentration: 0.1%). Only DMSO was added to wells in the absence of the test compound. After incubation for 5 days in a carbon dioxide incubator, the culture supernatant was collected and stored at −20° C. until IL-17 content measurement.
# In the IL-17 content measurement in the culture supernatant, a sandwich ELISA kit (Quantikine Human IL-17, manufactured by R&D Systems, Inc.) was used. The IL-17 content of each sample was calculated from the calibration curve of Standard IL-17 included in the kit. When the amount of IL-17 produced by the cocktail of various stimulants in the case of the addition of only DMSO was defined as 100%, the rate of inhibition of IL-17 production at each concentration of the test compound was calculated. The concentration of the test compound necessary for inhibiting 50% of IL-17 production (IC50 value) was calculated from the concentration of the added test compound and the rate of inhibition of IL-17 production by the test compound by using EXSUS (version 8.0.0 or version 8.0.1, manufactured by CAC Exicare Corp.).
# [2] = system: mouse imiquimod-induced psoriasis model; assay: Ear thickening suppression test using mouse imiquimod-induced psoriasis model; format: in vivo; conditions: topical, 120 h, application of a 0.01% methanol solution for 4 days, thickness measured on day 5, BALB/c mice, read-out: rate of inhibition of increase in right auricle thickness
# How it was run: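 Female BALB/c mice received test compound topically or orally, then 5 mg imiquimod cream (5%) on the right auricle 60 minutes later, daily for 4 days. Ear thickness was measured on day 5. Inhibition (%) of thickening was calculated relative to the solvent group, taken as 100%.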
# [3] = biological target: T1, CDK2 (Homo sapiens, UniProt P24941); assay: CDK2 enzyme inhibition test; format: biochemical; conditions: Ki=IC50/(1+S/Km); 33P bound to MBP, [γ-33P]ATP, 30° C. for 20 minutes; read-out: Ki value of CDK2 inhibitory activity
# T1 construct: purchased Invitrogen Corp. PV3267
# How it was run: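 Commercial CDK2 with MBP substrate and [γ-33P]ATP (500 μM solution, before mixing) in HEPES pH 7.4 buffer with DTT, Triton X-100 and MgCl2; 20 min at 30 °C. TCA-precipitated 33P-MBP counted by liquid scintillation; IC50 from inhibition of 33P incorporation, Ki = IC50/(1+S/Km).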
Compound,IC50 [1] [nM],inhibition in vivo at 0.01 % [2] [%],Ki [3] [nM]
"CC(C)(CO)C(NC(=O)N1Cc2c(NC(=O)C3([Si](C)(C)C)CCC3)n[nH]c2C1(C)C)c1ccccc1 (racemic) [IV-354, N-(3-Hydroxy-2,2-dimethyl-1-phenylpropyl)-6,6-dimethyl-3-[1-(trimethylsilyl)cyclobutanecarboxamido]-4,6-dihydropyrrolo[3,4-c]pyrazole-5(1H)-carboxamide]",≤ 50,≥ 50,
"CC(C)(CO)C(NC(=O)N1Cc2c(NC(=O)C3([Si](C)(C)C)CCC3)n[nH]c2C1(C)C)c1ccccc1 (single isomer, unassigned; (-)) [IV-673, (−)-N-(3-Hydroxy-2,2-dimethyl-1-phenylpropyl)-6,6-dimethyl-3-[1-(trimethylsilyl)cyclobutanecarboxamido]-4,6-dihydropyrrolo[3,4-c]pyrazole-5(1H)-carboxamide]",≤ 50,≥ 50,
"CC(C)(O)C[C@@H](NC(=O)N1Cc2c(NC(=O)C3([Si](C)(C)C)CCC3)n[nH]c2C1(C)C)c1ccccc1 [IV-299, (R)—N-(3-Hydroxy-3-methyl-1-phenylbutyl)-6,6-dimethyl-3-[1-(trimethylsilyl)cyclobutanecarboxamido]-4,6-dihydropyrrolo[3,4-c]pyrazole-5(1H)-carboxamide]",≤ 50,≥ 50,≥ 1000
"CC1(C)c2[nH]nc(NC(=O)C3([Si](C)(C)C)CCC3)c2CN1C(=O)NC(c1ccccc1)C1(CO)CCC1 (stereo not shown) [IV-718, N-{[1-(Hydroxymethyl)cyclobutyl](phenyl)methyl}-6,6-dimethyl-3-[1-(trimethylsilyl)cyclobutanecarboxamido]-4,6-dihydropyrrolo[3,4-c]pyrazole-5(1H)-carboxamide]",≤ 50,≥ 50,≥ 1000
"CC1(C)c2[nH]nc(NC(=O)C3([Si](C)(C)C)CCC3)c2CN1C(=O)N[C@H](CC1(O)CC1)c1ccccc1 [IV-743, (R)—N-[2-(1-Hydroxycyclopropyl)-1-phenylethyl]-6,6-dimethyl-3-[1-(trimethylsilyl)cyclobutanecarboxamido]-4,6-dihydropyrrolo[3,4-c]pyrazole-5(1H)-carboxamide]",≤ 50,≥ 50,≥ 1000
"CC(C)(O)C[C@@H](NC(=O)N1Cc2c(NC(=O)C3([Si](C)(C)C)CCC3)n[nH]c2C1(C)C)c1cccc(F)c1 [IV-911, (R)—N-[1-(3-Fluorophenyl)-3-hydroxy-3-methylbutyl]-6,6-dimethyl-3-[1-(trimethylsilyl)cyclobutanecarboxamido]-4,6-dihydropyrrolo[3,4-c]pyrazole-5(1H)-carboxamide]",≤ 50,≥ 50,≥ 1000
"CC(C)(CO)C(NC(=O)N1Cc2c(NC(=O)C3([Si](C)(C)C)CCC3)n[nH]c2C1(C)C)c1cccc(F)c1 (stereo not shown) [IV-918, N-[1-(3-Fluorophenyl)-3-hydroxy-2,2-dimethylpropyl]-6,6-dimethyl-3-[1-(trimethylsilyl)cyclobutanecarboxamido]-4,6-dihydropyrrolo[3,4-c]pyrazole-5(1H)-carboxamide]",≤ 50,≥ 50,
"CC(C)(O)C[C@@H](NC(=O)N1Cc2c(NC(=O)C3([Si](C)(C)C)CCC3)n[nH]c2C1(C)C)c1ccc(F)cc1 [IV-939, (R)—N-[1-(4-Fluorophenyl)-3-hydroxy-3-methylbutyl]-6,6-dimethyl-3-[1-(trimethylsilyl)cyclobutanecarboxamido]-4,6-dihydropyrrolo[3,4-c]pyrazole-5(1H)-carboxamide]",≤ 50,≥ 50,≥ 1000
"CC(C)(CO)C(NC(=O)N1Cc2c(NC(=O)C3([Si](C)(C)C)CCC3)n[nH]c2C1(C)C)c1ccc(F)cc1 (stereo not shown) [IV-946, N-[1-(4-Fluorophenyl)-3-hydroxy-2,2-dimethylpropyl]-6,6-dimethyl-3-[1-(trimethylsilyl)cyclobutanecarboxamido]-4,6-dihydropyrrolo[3,4-c]pyrazole-5(1H)-carboxamide]",≤ 50,≥ 50,≥ 1000
"CO[C@@H](C(=O)N1Cc2c(NC(=O)C3([Si](C)(C)C)CCC3)n[nH]c2C1(C)C)c1ccccc1 [IV-1175, (R)—N-[5-(2-Methoxy-2-phenylacetyl)-6,6-dimethyl-1,4,5,6-tetrahydropyrrolo[3,4-c]pyrazol-3-yl]-1-(trimethylsilyl)cyclobutanecarboxamide]",≤ 50,≥ 50,
"CC[Si](C)(C)C1(C(=O)Nc2n[nH]c3c2CN(C(=O)[C@H](OC)c2ccccc2)C3(C)C)CCC1 [IV-1178, (R)-1-(Ethyldimethylsilyl)-N-[5-(2-methoxy-2-phenylacetyl)-6,6-dimethyl-1,4,5,6-tetrahydropyrrolo[3,4-c]pyrazol-3-yl] cyclobutanecarboxamide]",≤ 50,≥ 50,
"CC1(C)c2[nH]nc(NC(=O)C3([Si](C)(C)C)CCC3)c2CN1C(=O)[C@H](OC(F)F)c1ccccc1 [IV-1180, (R)—N-{5-[2-(Difluoromethoxy)-2-phenylacetyl]-6,6-dimethyl-1,4,5,6-tetrahydropyrrolo[3,4-c]pyrazol-3-yl}-1-(trimethylsilyl)cyclobutanecarboxamide]",≤ 50,≥ 50,
"CCO[C@@H](C(=O)N1Cc2c(NC(=O)C3([Si](C)(C)C)CCC3)n[nH]c2C1(C)C)c1ccccc1 [IV-1188, (R)—N-[5-(2-Ethoxy-2-phenylacetyl)-6,6-dimethyl-1,4,5,6-tetrahydropyrrolo[3,4-c]pyrazol-3-yl]-1-(trimethylsilyl)cyclobutanecarboxamide]",≤ 50,≥ 50,
"CC1(C)c2[nH]nc(NC(=O)C3([Si](C)(C)C)CCC3)c2CN1C(=O)[C@H](OC1CC1)c1ccccc1 [IV-1208, (R)—N-[5-(2-Cyclopropoxy-2-phenylacetyl)-6,6-dimethyl-1,4,5,6-tetrahydropyrrolo[3,4-c]pyrazol-3-yl]-1-(trimethylsilyl)cyclobutanecarboxamide]",≤ 50,≥ 50,
"CO[C@@H](C(=O)N1Cc2c(NC(=O)C3([Si](C)(C)C)CCC3)n[nH]c2C1(C)C)c1ccccc1F [IV-1383, (R)—N-{5-[2-(2-Fluorophenyl)-2-methoxyacetyl]-6,6-dimethyl-1,4,5,6-tetrahydropyrrolo[3,4-c]pyrazol-3-yl}-1-(trimethylsilyl)cyclobutanecarboxamide]",≤ 50,≥ 50,
"COC(C(=O)N1Cc2c(NC(=O)C3([Si](C)(C)C)CCC3)n[nH]c2C1(C)C)c1cccc(F)c1 (stereo not shown) [IV-1404, N-{5-[2-(3-Fluorophenyl)-2-methoxyacetyl]-6,6-dimethyl-1,4,5,6-tetrahydropyrrolo[3,4-c]pyrazol-3-yl}-1-(trimethylsilyl)cyclobutanecarboxamide]",≤ 50,≥ 50,
"COC(C(=O)N1Cc2c(NC(=O)C3([Si](C)(C)C)CCC3)n[nH]c2C1(C)C)c1cccs1 (stereo not shown) [IV-1546, N-{5-[2-Methoxy-2-(thiophen-2-yl)acetyl]-6,6-dimethyl-1,4,5,6-tetrahydropyrrolo[3,4-c]pyrazol-3-yl}-1-(trimethylsilyl)cyclobutanecarboxamide]",≤ 50,≥ 50,
